The text below walks through data of patent publication US7994222B2, “Monitoring of the inhibition of fatty acid synthesis by iodo-nitrobenzamide compounds” (BiPar Sciences, Inc., priority 2006, dated 2011).

For series [1] the following is noted: cited from earlier work.
Another series concerns cancer cells. The settings on record: cancer cells with highly active fatty acid synthesis; cited from earlier work.
In the next series the test system is OVCAR-3 cells. Nature of the series: Metabolic flux profiling with [1,2-13C2]-D-glucose tracer in cultured OVCAR-3 cells (GC/MS, MIDA). The series is classed as cell-based, human. From the text:
(§1) Goal: This study relates to analyzing the effect of the 3-nitro-4-iodobenzamide (compound of formula III) in vitro on cultured OVCAR-3 cells' and HeLa cells' metabolic fluxes using [1,2-^13C2]-D-glucose as the only source of glucose. The analysis includes correlating fluxes with cell growth-modifying effect, analyzing mechanism of anti-proliferative action and analyzing potential toxicity, selectivity, and efficacy. Target metabolites include glucose (culture medium and pellet glycogen), lactate (culture medium), ^13CO2 (culture medium), C:14 (myristate); C:16 (palmitate); C:18 (stearate); C:18-1 (oleate); C:20; C:22; C:24 (cell pellet), acetyl-CoA synthesis for fatty acids (cell pellet), and RNA ribose and DNA deoxyribose (cell pellet). Target fluxes include glucose uptake from culture media; lactate production from glucose (anaerobic glycolysis); ^13CO2 release from glucose via TCA cycle; glycogen synthesis; de novo fatty acid synthesis, elongation, desaturation and acetyl-CoA synthesis; and pentose cycle-RNA and DNA ribose synthesis via oxidative and non-oxidative reactions.
(§2) Materials & Methods: The tracer for this metabolic profiling study, stable isotope [1, 2-^13C2]-D-glucose, is purchased with >99% purity and 99% isotope enrichment for each position from Cambridge Isotope Laboratories, Inc. (Andover, Mass.).
(§3) Cells & cell culture: OVCAR3 and Hela cells are purchased from American Type Culture Collection (ATCC). The cells are cultured according to instructions obtained from ATCC. The cells are incubated at 37° C., 5% CO2 and 95% humidity and passed by using trypsin 0.25% (Gibco/BRL) no more than ten times after receipt from the ATCC and prior to use in this study.
(§4) Seventy-five percent confluent cultures cells are incubated in [1,2-^13C2]D-glucose-containing media (100 mg/dl total concentration=5 mM; 50% isotope enrichment—i.e. half unlabeled glucose, half labeled with the stable isotope ^13C tracer). […] Control cultures are treated with vehicle only. […] Glucose and lactate levels in the medium are measured using a Cobas Mira chemistry analyzer (Roche Diagnostics, Pleasanton, Calif., USA).
(§5) RNA ribose stable isotope studies: RNA ribose is isolated by acid hydrolysis of cellular RNA after Trizol purification of cell extracts. Total RNA amounts are assessed by spectrophotometric determination, in triplicate cultures. Ribose is derivatized to its aldonitrile acetate form using hydroxylamine in pyridine with acetic anhydride (Supelco, Bellefonte, Pa.) before mass spectral analyses. The ion cluster is monitored around the m/z 256 (carbons 1-5 of ribose) (chemical ionization, CI) and m/z 217 (carbons 3-5 of ribose) and m/z 242 (carbons 1-4 of ribose) (electron impact ionization, EI) to determine molar enrichment and the positional distribution of ^13C in ribose. By convention, the base mass of ^12C-compounds (with their derivatization agents) is given as m0 as measured by mass spectrometry (Boros L G, et al. 2002, Drug Discov. Today 7: 364-372).
(§6) Ribose molecules labeled with a single ^13C atom on the first carbon position (m1) recovered from RNA are used to gauge the ribose fraction produced by direct oxidation of glucose through the G6PD pathway. Ribose molecules labeled with ^13C on the first two carbon positions (m2) are used to measure the fraction produced by transketolase. Doubly labeled ribose molecules (m2 and m4) on the fourth and fifth carbon positions are used to measure molar fraction produced by triose phosphate isomerase and transketolase.
(§7) Lactate: Lactate from the cell culture media (0.2 ml) is extracted by ethylene chloride after acidification with HCL. Lactate is derivatized to its propylamine-heptafluorobutyrate ester form and the m/z 328 (carbons 1-3 of lactate) (chemical ionization, CI) is monitored for the detection of m1 (recycled lactate through the PC) and m2 (lactate produced by the Embden-Meyerhof-Pamas pathway) for the estimation of pentose cycle activity (Lee W N, et al. 1998, Am J Physiol 274: E843-E851). […]

The test system of another series is glycogen phosphorylase. The settings on record: in the presence or absence of glucose; human cells; cited from earlier work.
Another series relates to HeLa cells. Nature of the series: Metabolic flux profiling with [1,2-13C2]-D-glucose tracer in cultured HeLa cells (GC/MS, MIDA). The series is classed as cell-based, human.
Source text: as §1, §2, §3, §4, §5, §6, §7

The test system of the next series is tumor tissue. The settings on record: in vivo; cited from earlier work.

Entries after “also recorded” stand apart in the source; their conditions may differ.

For the compound `C/C=C/C/C=C/CCC(=O)[C@H]1O[C@H]1C(N)=O` [cerulenin], in series [1], the in vivo activity entry is reported as “limited in vivo activity”. The “effect on cancer cells in vitro” value with cancer cells is reported as “cell death by means of apoptosis”.
As to `NC(=O)c1ccc(I)c([N+](=O)[O-])c1` [3-nitro-4-iodobenzamide], in the series on OVCAR-3 cells, the “G6PDH and transketolase fluxes for DNA deoxyribose synthesis” value is “target enzymes; also recorded: inhibits”; the “Glycogen synthesis and breakdown via the direct pathway” value is on record as “inhibits”; the “acetyl-CoA contribution from glucose to long chain saturated fatty acids (C:20-C:24)” value is “dose-dependent increase”; the “toxic effects on cell energy production and nucleic acid RNA turnover” value was “no toxic effects”. The “arachidic acid (C:20) synthesis” value in the series on OVCAR-3 cells (3 and 10 μM, 72 hours, FIGS. 9A and B) was “inhibit”. Further, the “C:22 fatty acid synthesis” value in the series on OVCAR-3 cells (3 and 10 μM, 72 hours, FIGS. 10A and B) was “inhibit”. Also, in the series with OVCAR-3 cells (3 and 10 μM, 72 hours, FIGS. 11A and B), the “C:24 fatty acid synthesis” value is given as “inhibit”. Moreover, the “cell membrane formation via limited de novo long chain (C:20-C:24) fatty acid synthesis” value with OVCAR-3 cells (mechanism of anti-proliferative action) is “decreases”. Also, the glycogen phosphorylase activity result in the series on glycogen phosphorylase is recorded as “effectively controls”. Moreover, in the series with HeLa cells (HeLa cells), the “De novo synthesis of arachidic acid (C:20)” value is listed as “spared from the inhibitory action”; the “Oxidation of glucose into CO2 and ATP production in the TCA cycle” value is given as “not affected”; the “acetyl-CoA contribution from glucose to long chain saturated fatty acids (C:20-C:24)” value was “dose-dependent increase”; the “contribution to acetyl-CoA synthesis from glucose (C:14-C:18 fatty acids)” value is reported as “low”. Also, in the series with HeLa cells (HeLa cells), the “substrate (glucose) uptake and activation (phosphorylation)” value was “no inhibitory effect”; the “toxic effects on cell energy production, nucleic acid turnover and glycogen synthesis” value is given as “no toxic effects”. For the same compound, the “medium and long chain fatty acid (C:14-C:18) de novo synthesis from glucose” value in the series on HeLa cells (HeLa cells, dose-responsive) was “decreased”. The “cell membrane formation via limited de novo fatty acid synthesis” value in the series with HeLa cells (HeLa cells, mechanism of anti-proliferative action) was “decreases”. Further, in the series with HeLa cells (HeLa cultures), the “Acetyl-CoA enrichment/formation from glucose for arachidic acid synthesis” value is “high and increases”. Also, the “myristate (C:14) synthesis” value in the series on HeLa cells (Hela cells, 3 and 10 μM, 13C-labeled myristate at 72 hours, FIGS. 3A and B) is “inhibit”. Further, the “oleate (C:18-1) synthesis” value with HeLa cells (Hela cells, 3 and 10 μM, 13C-labeled oleate at 72 hours, FIGS. 6A and B) is on record as “inhibit”. In the series on HeLa cells (Hela cells, 3 and 10 μM, 13C-labeled palmitate at 72 hours, FIGS. 4A and B), the “palmitate (C:16) synthesis” value is given as “inhibit”. In addition, the “stearate (C:18) synthesis” value with HeLa cells (Hela cells, 3 and 10 μM, 13C-labeled stearate at 72 hours, FIGS. 5A and B) was “inhibit”. Further, in the series on HeLa cells (Hela cells, 3 and 10 μM, 72 hours, FIGS. 7A and B), the “C:22 fatty acid synthesis” value was “inhibit”. Besides, the “C:24 fatty acid synthesis” value in the series on HeLa cells (Hela cells, 3 and 10 μM, 72 hours, FIGS. 8A and B) is reported as “inhibit”.
On to `C=C1C(=O)OC(CCCCCCCC)C1C(=O)O` (stereo not shown) [C75], for which, in the series on tumor tissue, the anti-tumor activity entry is “anti-tumor activity” and the “fatty acid synthesis in tumor tissue” value is “inhibition”.
